Among the test systems are K-562 leukemia; M14 melanoma; TK-10 renal; SK-MEL-28 melanoma; SR leukemia; LOX IMVI melanoma; SN12C renal; RPMI-8226 leukemia; CCRF-CEM leukemia; SF-268 CNS; KM12 colon; HT29 colon; OVCAR-3 ovarian; NCI-H522 lung; NCI/ADR-RES ovarian.
Holding throughout (experiment): NCI tumour cell line growth inhibition, 48 h

Each structure is given as a SMILES string.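 In this assay, cells in 96-well plates receive the compound at five concentrations for 48 hours. Endpoints are linearly interpolated between the surrounding concentrations. The concentration for full growth arrest is given as TGI.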

TGI data for ten compounds are collected here from PubChem BioAssay (NCI).

Take `COc1nc(N)c(NC(C)=O)c(=O)n1C`: the TGI with K-562 leukemia, with M14 melanoma, in the assay on TK-10 renal, in the assay on SK-MEL-28 melanoma, in the assay with SR leukemia and with LOX IMVI melanoma was more than 100 µM each time. For the same compound, the TGI in the assay with SN12C renal, with RPMI-8226 leukemia, in the assay on CCRF-CEM leukemia, with SF-268 CNS, in the assay on KM12 colon and in the assay on HT29 colon was more than 100 µM in each case.

In the case of `CC1CCC2CC(=O)OC([C@@H]3C(=O)O[C@@H](C4=CCCC4)C4C(C)CCC43)C12` (stereo not given in full), the TGI in the assay on K-562 leukemia, in the assay with M14 melanoma, with TK-10 renal, with SK-MEL-28 melanoma, in the assay on SR leukemia and in the assay on OVCAR-3 ovarian was more than 100 µM in each case. Further, the TGI in the assay with LOX IMVI melanoma, with SN12C renal, in the assay on RPMI-8226 leukemia, in the assay on CCRF-CEM leukemia, with NCI-H522 lung and in the assay on SF-268 CNS was more than 100 µM throughout. In addition, the TGI in the assay on KM12 colon and in the assay on HT29 colon was more than 100 µM in each case.

`CCCCCCCCCOCC(COP(=O)([O-])OCC[N+](C)(C)C)OC` (stereo not given): the TGI in the assay with K-562 leukemia, with SK-MEL-28 melanoma, in the assay with OVCAR-3 ovarian, in the assay on LOX IMVI melanoma, in the assay with SN12C renal and in the assay with RPMI-8226 leukemia was more than 100 µM throughout. The TGI with CCRF-CEM leukemia, in the assay with NCI-H522 lung, in the assay with SF-268 CNS, with KM12 colon, with HT29 colon and in the assay with NCI/ADR-RES ovarian was more than 100 µM throughout.

On to `C/C=C1\CN2CCc3c([nH]c4ccccc34)C2CC1CCO` (stereo not given), for which the TGI in the assay with K-562 leukemia, in the assay on M14 melanoma, with TK-10 renal, in the assay with SK-MEL-28 melanoma, with SR leukemia and in the assay on OVCAR-3 ovarian was more than 100 µM throughout. Further, the TGI in the assay on LOX IMVI melanoma, with SN12C renal, in the assay with CCRF-CEM leukemia, in the assay on NCI-H522 lung, in the assay with SF-268 CNS and in the assay on KM12 colon was more than 100 µM each time. The compound further came in with a TGI with HT29 colon of more than 100 µM.

In the case of `COc1cccc(C2SC(N)=Nc3c2c(C)nn3C(=O)Cc2ccccc2)c1` (stereo not given), the TGI with K-562 leukemia, with M14 melanoma, in the assay on TK-10 renal, in the assay with SK-MEL-28 melanoma, with SR leukemia and with LOX IMVI melanoma was more than 100 µM each time. The TGI in the assay with SN12C renal, in the assay with RPMI-8226 leukemia, in the assay on CCRF-CEM leukemia, in the assay on NCI-H522 lung, with SF-268 CNS and in the assay on KM12 colon was more than 100 µM in each case. The compound also yielded a TGI in the assay with HT29 colon of more than 100 µM.

In the case of `CCOC(=O)CC(NC(=O)c1[nH]cnc1/N=N/N(C)C)C(=O)OCC` (stereo not given), the TGI in the assay on K-562 leukemia, in the assay with M14 melanoma, with TK-10 renal, in the assay with SK-MEL-28 melanoma, in the assay with SR leukemia and in the assay with OVCAR-3 ovarian was more than 100 µM in each case. In addition, the TGI in the assay with LOX IMVI melanoma, with SN12C renal, in the assay on RPMI-8226 leukemia, with CCRF-CEM leukemia, with NCI-H522 lung and in the assay on SF-268 CNS was more than 100 µM throughout. The TGI in the assay on KM12 colon and in the assay on HT29 colon was more than 100 µM each time.

Take `[B-][P+](CC[P+]1([B-])[C@@H](C)[C@@H](O)[C@H](O)[C@@H]1C)(c1ccccc1)c1ccccc1OC` (stereo not given in full): the TGI turned out to be 70.8 µM in the assay on K-562 leukemia; 34 µM in the assay with M14 melanoma; 32.5 µM with TK-10 renal; 32.7 µM in the assay with SK-MEL-28 melanoma; 31 µM in the assay with OVCAR-3 ovarian; 8.51 µM with LOX IMVI melanoma. Further, the TGI came out at 26.2 µM with SN12C renal; 55.4 µM with RPMI-8226 leukemia; 46.4 µM in the assay on CCRF-CEM leukemia; 26.2 µM in the assay with NCI-H522 lung; 32.8 µM with SF-268 CNS; 33.1 µM with KM12 colon. In addition, the TGI with HT29 colon was 40.6 µM; in the assay on NCI/ADR-RES ovarian, 35.9 µM.

For `CC1C2C=C(O)C(=O)C(C2=O)C1c1ccccc1` (stereo not given), the TGI with K-562 leukemia, in the assay on M14 melanoma, with TK-10 renal, in the assay with SK-MEL-28 melanoma, in the assay with SR leukemia and in the assay with OVCAR-3 ovarian was more than 100 µM each time. The TGI in the assay on LOX IMVI melanoma, with RPMI-8226 leukemia, in the assay on CCRF-CEM leukemia, in the assay with NCI-H522 lung, in the assay on SF-268 CNS and in the assay on KM12 colon was more than 100 µM each time. Further, in the assay with HT29 colon, the TGI was more than 100 µM.

Turning to `Cc1c(N=C/C=C/c2ccccc2)c(=O)n(-c2ccccc2)n1C`, the TGI with M14 melanoma was 38.9 µM; in the assay on TK-10 renal, more than 100 µM; with SK-MEL-28 melanoma, 39.8 µM; with OVCAR-3 ovarian it was 67.9 µM; with LOX IMVI melanoma it was 25 µM; in the assay with SN12C renal it was 43.4 µM. The TGI is 38.6 µM in the assay on RPMI-8226 leukemia; 30.1 µM with CCRF-CEM leukemia; more than 100 µM in the assay with NCI-H522 lung; more than 100 µM in the assay with SF-268 CNS; 77.2 µM with KM12 colon; more than 100 µM in the assay with HT29 colon. Besides, the TGI in the assay on NCI/ADR-RES ovarian was determined as 79.6 µM.

`CSCSCC(CO)NC(=O)/C(C)=C\c1c(C)[nH]c(=O)[nH]c1=O` (stereo not given): the TGI with K-562 leukemia, with SK-MEL-28 melanoma, with OVCAR-3 ovarian, in the assay with LOX IMVI melanoma, in the assay with SN12C renal and with RPMI-8226 leukemia was more than 250 µM each time. Besides, the TGI with CCRF-CEM leukemia, with NCI-H522 lung, in the assay with SF-268 CNS, in the assay with KM12 colon, in the assay with HT29 colon and in the assay on NCI/ADR-RES ovarian was more than 250 µM throughout.
